Experimental data published in ChEMBL document CHEMBL1123908, “Endoperoxides as potential antimalarial agents” (J Med Chem, 1987).

Columns and labels:
Format in all cases: functional, organism-based
Mus musculus [1] = experiment: Blood schizonticidal activity against Plasmodium berghei in mice (Mus musculus) at the dose of 40 mg/kg; Inactive; design: dose 40 mg/kg
Mus musculus [2] = experiment: Blood schizonticidal activity against Plasmodium berghei in mice (Mus musculus) at the dose of 640 mg/kg; Inactive; design: dose 640 mg/kg
Mus musculus [3] = experiment: Blood schizonticidal activity against Plasmodium berghei in mice (Mus musculus) at the dose of 160 mg/kg; Inactive; design: dose 160 mg/kg

CC(=O)OC1CCC2(C)CC3C=C[C@]2(OO3)C1(C)C (some centres not stated)
Not Active: Blood schizonticidal activity (Mus musculus [1]) | Activity (active/inactive) (Mus musculus [2]) | Activity call (Mus musculus [3])

CC12CCC(O)C(C)(C)C13CCC(C2)OO3 (configuration not stated)
Not Active: Blood schizonticidal activity (Mus musculus [1]) | Activity (active/inactive) (Mus musculus [2]) | Activity call (Mus musculus [3])

CC(=O)OC(C)CCC12OO[C@@H](C=C1C)CC2(C)C (some centres not stated)
Not Active: Blood schizonticidal activity (Mus musculus [1]) | Activity (active/inactive) (Mus musculus [2]) | Activity call (Mus musculus [3])

CC(=O)OC1CCC2(C)CC3CCC2(OO3)C1(C)C (configuration not stated)
Not Active: Blood schizonticidal activity (Mus musculus [1]) | Activity (active/inactive) (Mus musculus [2]) | Activity call (Mus musculus [3])

CC12CCC(OC(=O)c3ccccc3)C(C)(C)C13CCC(C2)OO3 (configuration not stated)
Not Active: Blood schizonticidal activity (Mus musculus [1]) | Activity (active/inactive) (Mus musculus [2]) | Activity call (Mus musculus [3])

CCCCOC(=O)OC1CCC2(C)CC3CCC2(OO3)C1(C)C (configuration not stated)
Not Active: Blood schizonticidal activity (Mus musculus [1]) | Activity (active/inactive) (Mus musculus [2]) | Activity call (Mus musculus [3])

CC(C)CCCC(C)[C@H]1CC[C@H]2C3CC=C4C[C@@H](OC(=O)OC5CCC6(C)CC7C=CC6(OO7)C5(C)C)CCC4(C)[C@H]3CCC12C (some centres not stated)
Not Active: Blood schizonticidal activity (Mus musculus [1]) | Activity (active/inactive) (Mus musculus [2]) | Activity call (Mus musculus [3])

CC12CCC(O)C(C)(C)[C@@]13C=CC(C2)OO3 (some centres not stated)
Not Active: Blood schizonticidal activity (Mus musculus [1]) | Activity (active/inactive) (Mus musculus [2]) | Activity call (Mus musculus [3])

CC12CCC(OC(=O)c3ccccc3)C(C)(C)[C@@]13C=CC(C2)OO3 (some centres not stated)
Not Active: Blood schizonticidal activity (Mus musculus [1]) | Activity (active/inactive) (Mus musculus [2]) | Activity call (Mus musculus [3])
